Three compounds from patent US20140194499A1, “Polyprenylated Benzoylphloroglucinols With Anticancer Activity” (Hong Kong Baptist University, priority 2013, published 2014) can be followed below.

Holding throughout (assay type): cell-based
Data set [1] relates to human esophageal carcinoma (ECA109) cells. The data set can be described thus: Wound healing assay (cell migration). To be noted: 10 and 20 μg/mL, 36 hours. As for the experimental part: (§1) In the present invention, garciesculentones A and C (compounds 1 and 2) are evaluated for their cytotoxicity against two human hepatoma carcinoma (SMMC-7721 and HepG2) and two human breast adenocarcinoma cell lines (MCF-7 and MDA-MB-231) using MTT assay, palcitaxel is used as positive control. […] In practice, an effective concentration of the tested compound to kill a target cancer cell in vitro is normally about double of the corresponding IC50 value. In addition, wound healing assay is conducted to test whether two novel compounds could affect cell motility.
Wound healing assay. A wound healing assay was performed by using a modified procedure described previously in Jones, J. I.; Gockerman, A.; Busby, W. H., Jr.; Wright, G.; Clemmons, D. R., Insulin-like growth factor binding protein 1 stimulates cell migration and binds to the alpha 5 beta 1 integrin by means of its Arg-Gly-Asp sequence. Proc Nall Acad Sci USA 1993, 90 (22), 10553-7. Briefly, cells were plated in 24 wells plate at 70% confluence in conditioned medium. […] Cell migration into the wound surface was monitored by Olympus 1X71 microscopy and digitally photographed.

Data set [2] has as its system SMMC-7721 (human hepatocellular carcinoma). In words: MTT cytotoxicity assay, SMMC-7721. The settings on record: SMMC-7721 cells. As for the experimental part: as §1
(§2) Cytotoxicity Assay. Cytotoxic activities of all isolates were evaluated by MTT assay using SMMC-7721 (human hepatocellular carcinoma), HepG2 (human hepatocellular carcinoma), MCF-7 (human breast adenocarcinoma), and MDA-MB-231 (human breast adenocarcinoma). Paclitaxel was used as positive control. The detailed methodology for cytotoxicity assay has already been described in a previous report in Xia, Z.-X.; Zhang, D.-D.; Liang, S.; Lao, Y.-Z.; Zhang, H.; Tan, H.-S.; Chen, S.-L.; Wang, X.-H.; Xu, H.-X., Bioassay-Guided Isolation of Prenylated Xanthones and Polycyclic Acylphloroglucinols from the Leaves of Garcinia nujiangensis. Journal of Natural Products 2012.

Data set [3] has as its system HepG2 (human hepatocellular carcinoma). The data set can be described thus: MTT cytotoxicity assay, HepG2. The settings on record: HepG2 cells, read-out: Cytotoxicity IC50, HepG 2. As for the experimental part:
as §1, §2
For orientation: Tetrazolium dyes change colour on reduction, which living cells bring about.

Data set [4] deals with MCF-7 (human breast adenocarcinoma). In words: MTT cytotoxicity assay, MCF-7. As for the experimental part: as §1, §2
The test system of data set [5] is MDA-MB-231 (human breast adenocarcinoma). The data set can be described thus: MTT cytotoxicity assay, MDA-MB-231. The settings on record: MDA-MB-231 cells. Here is the method: as §1, §2

Where two headings read alike, the source gives them in different places.

What is called IC50 is the concentration that gives 50% inhibition.

As for `CC(C)=CC[C@H]1C[C@@]23C[C@H](CC=C(C)C)C(C)(C)[C@@](CC=C(C)C)(C(=O)C(OC(=O)c4ccc(O)c(O)c4)=C2OC1(C)C)C3=O` (relative stereo) [Compound 1, Garciesculentone A], the “Cell migration into the wound area (antimigration effect)” value in data set [1] is “do not migrate into and completely close the wound”. In addition, the IC50 in data set [2] was found to be 10.8 µM; in data set [3], 43.2 µM; in data set [4] (MCF-7 cells) it was 20.3 µM; in data set [5] it was 16.4 µM.
In the case of `CC(=O)O[C@H]1C(=O)[C@@]2(C)[C@H]([C@H](OC(=O)c3ccccc3)[C@]3(O)C[C@H](OC(=O)[C@H](O)[C@@H](NC(=O)c4ccccc4)c4ccccc4)C(C)=C1C3(C)C)[C@]1(OC(C)=O)CO[C@@H]1C[C@@H]2O` [Palcitaxel, Paclitaxel, reference compound], the IC50 in data set [2] (Homo sapiens) worked out at 0.0091 µM; in data set [3] (Homo sapiens) it was 0.0046 µM; in data set [4] (Homo sapiens, MCF7, MCF-7 cells) it was 0.0015 µM; in data set [5] (Homo sapiens), 0.0082 µM.
Consider Garciesculentone C [Compound 2], for which the “Cell migration into the wound area (antimigration effect)” value in data set [1] was “do not migrate into and completely close the wound”. Besides, the IC50 in data set [2] turned out to be 17.5 µM; in data set [3] it was 21.9 µM; in data set [4] (MCF-7 cells), 11.1 µM; in data set [5] it was 21.5 µM.
